Experimental data as given in publication PMC5442318, “Hundreds of dual-stage antimalarial molecules discovered by a functional gametocyte screen” (Nature Communications, 2017).

Assays:
[1] = system: P. falciparum female gametes; assay: Pf FGAA with compounds added 30 min after triggering gametocyte activation (gamete-targeting); type: cell-based, Plasmodium falciparum NF54; conditions: Plasmodium falciparum; 0h incubation time
[2] = system: P. falciparum male gametocytes (exflagellation); assay: Exflagellation assay (male gametocytes); type: cell-based, Plasmodium falciparum; parameters: Exflagellation Inhibition %: concentration or dose not given beside the values
Description: Figure 5 Exflagellation inhibition by six TCAMS compounds. Stage V gametocyte cultures were exposed to 2 μM of TCMDC-141070 and 1 μM of the five remaining compounds for 48 h. The percentage inhibition was determined compared to DMSO-treated controls. Compounds were then progressed into SMFA to further determine the transmission blocking in mosquitoes. Each bar represents mean value of two (TCMDC-125345, TCMDC-141698, TCMDC-123767, TCMDC-141154) or three (TCMDC-141070, TCMDC-124559) independent replicates with s.d.
Exflagellation was measured as previously reported[24] with minor modifications. Using 5 ml of day-14 gametocyte cultures, parasites were incubated with the corresponding concentration for each compound in six-well plates at 37 °C (3% O2, 5% CO2 and 92% N2). After 48 h incubation, a 200 μl sample was spun down in a microfuge, the supernatant was carefully removed and the pellet resuspended in 15 μl of pre-warmed ookinete medium. Parasites were placed in Fast-Read disposable haemocytometer slides and, after 15 min at room temperature (22 °C), exflagellation centres per field were counted under × 10 objective.

[3] = system: P. falciparum asexual blood stages; conditions: ref 1 (Gamo, F. J. et al., Nature 465, 305-310, 2010), cited from earlier work; for IC50: TCAMS asexual blood stage data, read-out: Pf Asexual blood stages XC50; for Pf Asexual stages XC50: TCAMS data
[4] = system: P. falciparum oocysts in Anopheles stephensi mosquitoes; assay: Standard membrane feeding assay (SMFA), indirect format; type: cell-based, Plasmodium falciparum; parameters: Oocyst Reduction Intensity %: concentration or dose not given beside the values; conditions: for Block in transmission (%) (reduction in oocyst prevalence): 1 or 2 μM (Pf FGAA IC90)
Description: To validate the transmission-blocking potential of the TCAMS hits and assess the predictive value of the Pf FGAA as an in vitro high throughput surrogate of full mosquito feeding, the ‘gold-standard' SMFA was performed. Six compounds showing different biological profiles, belonging to four distinct chemical clusters, were selected based on their potencies in the Pf FGAA (Supplementary Data 1, Table 1). For each compound, inhibition of exflagellation of male gametocytes was measured. […] Compounds were tested in duplicate in 2–3 independent experiments in the indirect format of the assay, that is, gametocytes were exposed to the drug for 48 h before mosquito feeding to replicate a drug exposure time equivalent to that used in the Pf FGAA. […] By contrast, TCMDC-124559 reduced prevalence and intensity by <20% (Fig. 6a,b, respectively).
Day-14 gametocyte cultures were plated in pre-warmed six-well-plates (5 ml per well) and were exposed to the compounds (1 μM or 2 μM final concentration) for 48 h at 37 °C (3% O2, 5% CO2 and 92% N2). Within this incubation time, 3 ml of media were removed after the first 24 h and replenished with the same volume of fresh media with compound added to obtain the required final concentration. After 48 h of total exposure, cultures were centrifuged at 2,500 g for 3 min at 37 °C, diluted 1:1 with 100% packed volume of fresh erythrocytes and finally formulated as artificial mosquito blood meals at 50% haematocrit with pre-warmed human serum. All steps were performed at 37 °C to avoid gametocyte activation. Four- to six-day old female Anopheles stephensi mosquitoes (GlaxoSmithKline Insectary) were fed for 30 min via Parafilm membrane attached to glass feeders (12831283, Fisher Scientific) connected to a 37 °C circulating water bath. Fed mosquitoes were maintained in an incubator at 27 °C and 75% relative humidity with 12 h light/dark cycles. Seven to eight days post-feeding, mosquitoes with fully developed ovaries were dissected for midguts, which were rinsed in a 0.2% mercury-dibromofluorescein (63869, Fluka) in water solution for 10 min. Total number of oocysts in individual midguts were counted using a light microscope (DM2000, Leica) under a × 10 objective. The percentage of block in transmission (reduction in prevalence) and the percentage of reduction in mean oocyst intensity were calculated after normalizing to the control DMSO-treated sample. Two to three independent SMFA experiments were performed and two internal duplicates of 40 mosquitoes each were used per compound. Mean oocyst intensities were not less than two oocysts per mosquito and the prevalence of infection ranged from 70 to 90% in the fed mosquito control groups. See complete experimental data set in Supplementary Table 1 and Supplementary Note 1.

[5] = system: Plasmodium berghei asexual blood stages; assay: In vivo antimalarial therapeutic efficacy, P. berghei murine model; parameters: species or system CD1 mice
Description: Two out of the six compounds progressed to SMFA, TCMDC-123767 (cluster 30) and TCMDC-141154 (cluster 4), were evaluated in vivo in the Plasmodium berghei murine model. Selection criteria was based on the compound potencies in both asexual stages and gametocytes in the Pf FGAA, as well as on their transmission-blocking activity observed in the SMFA (Table 1). Owing to compound availability, TCMDC-141154 had to be replaced by a close analogue from cluster 4: TCMDC-140549 (Supplementary Data 3). Compounds were tested at 50 mg kg^−1 single dose 2-day oral treatment and efficacy was measured as a reduction of asexual blood stages parasitaemia greater than 40% compared with the vehicle-treated mice.
Pathogen-free CD1 mice (Hsd:ICR) were obtained from Harlan Interfauna Iberica (Barcelona, Spain). Eight weeks old female CD-1 mice were infected intravenously with 10^7 infected erythrocytes (day 0). Dosing solutions were prepared in water containing 5% DMSO/20% Captisol, at a target dose of 50 mg kg^−1. Mice received two oral doses once a day according to their body weight (20 ml kg^−1) starting at day 2 after infection. Control mice received the same treatment schedule with the vehicle used for the compound preparation. Samples from mice peripheral blood were taken before starting treatment and 24 h after finishing the dosing, to measure parasitaemia by flow cytometry, using the YOYO-1 staining, to assess the reduction of parasitaemia compared with the vehicle-treated mice.

[6] = 48 h exposure, 2 μM TCMDC-141070, 1 μM other compounds, vs DMSO, mean of 2-3 replicates
[7] = 48 h exposure before feeding, mean of 2-3 experiments

IC50 [1] | Compound | Inhibition of exflagellation (%) [2, 6] | Exflagellation Inhibition % ([2]; Expt 1) | Exflagellation Inhibition % ([2]; Expt 2) | IC50 [3] | Pf Asexual stages XC50 [3] | Block in transmission (%) (reduction in oocyst prevalence) [4, 7] | Block in Transmission % ([4]; Expt 1) | Mean Oocyst Intensity in Test Compound ([4]; Expt 1) | Oocyst Reduction Intensity % ([4]; Expt 1) | Prevalence of Infection in Test Compound ([4]; Expt 1) | Block in Transmission % ([4]; Expt 2) | Mean Oocyst Intensity in Test Compound ([4]; Expt 2) | Oocyst Reduction Intensity % ([4]; Expt 2) | Prevalence of Infection in Test Compound ([4]; Expt 2) | Block in Transmission % ([4]; Expt 3) | Mean Oocyst Intensity in Test Compound ([4]; Expt 3) | Oocyst Reduction Intensity % ([4]; Expt 3) | Prevalence of Infection in Test Compound ([4]; Expt 3) | also measured
 | CC1Cc2ccccc2N1S(=O)(=O)c1cccc(C(=O)Nc2nc(-c3ccccn3)cs2)c1 (stereo not shown) [TCMDC-124559] | 30% | 28% | 0% | 1320 nM | 1320 nM | < 20% | 5% | 4.1 | 24% | 74.29 | 0% | 2.5 | 0% | 70 | 13% | 2.8 | 39% | 79.17 | Exflagellation Inhibition % ([2]; Expt 3): 60%; reduction in oocyst intensity ([4]; 48 h exposure before feeding, 1 or 2 μM, mean of 2-3 experiments): < 20%
4.95 µM | COc1cc(OC)cc(C(=O)Nc2nc(-c3ccccn3)cs2)c1 [TCMDC-125345] | 50% | 47% |  | 560 nM | 560 nM | 60% | 54% | 0.7 | 88% | 35.97 | 58% | 1.0 | 83% | 38.22 |  |  |  |  | 
1.77 µM | CC(C)(CNC(=O)[C@H]1CCCCN1)c1nc(-c2ccc(Cl)c(O)c2)c(-c2ccncc2)[nH]1 [TCMDC-141070] |  | 75% |  | 730 nM | 730 nM |  | 100% | 0 | 100% | 0 | 78% | 0.2 | 92% | 15.4 | 100% | 0 | 100% | 0 | inhibition at 2 µM ([2]; Plasmodium falciparum, 48 h exposure, 2 μM TCMDC-141070, 1 μM other compounds, vs DMSO, mean of 2-3 replicates): 99%
0.25 µM | NCC1(c2nc(-c3ccc(Cl)c(O)c3)c(-c3ccncc3)[nH]2)CCCCC1 [TCMDC-141154] | 97% | 97% | 97% | 740 nM | 530 nM | 93% | 93% | 0.1 | 99% | 5.46 | 93% | 0.1 | 98% | 6.16 |  |  |  |  | 
1.93 µM | Cc1ccc(Cn2nc(Cl)c(N3CCNCC3)cc2=O)cc1NC(=O)Nc1ccc(-c2ccccc2)cc1 [TCMDC-141698] | 84% |  | 87% | 680 nM | 670 nM | 82% | 82% | 0.2 | 97% | 14.04 | 90% | 0.2 | 97% | 8.8 |  |  |  |  | 

Compound | IC50 [1] | Inhibition of exflagellation (%) [2, 6] | Exflagellation Inhibition % ([2]; Expt 1) | Exflagellation Inhibition % ([2]; Expt 2) | IC50 [3] | Pf Asexual stages XC50 [3] | Block in transmission (%) (reduction in oocyst prevalence) [4, 7] | Block in Transmission % ([4]; Expt 1) | Mean Oocyst Intensity in Test Compound ([4]; Expt 1) | Oocyst Reduction Intensity % ([4]; Expt 1) | Prevalence of Infection in Test Compound ([4]; Expt 1) | Block in Transmission % ([4]; Expt 2) | Mean Oocyst Intensity in Test Compound ([4]; Expt 2) | Oocyst Reduction Intensity % ([4]; Expt 2) | Prevalence of Infection in Test Compound ([4]; Expt 2) | Block in Transmission % ([4]; Expt 3) | Mean Oocyst Intensity in Test Compound ([4]; Expt 3) | Oocyst Reduction Intensity % ([4]; Expt 3) | Prevalence of Infection in Test Compound ([4]; Expt 3) | also measured
FC(F)(F)c1cnc(Sc2nnc(-c3ccncc3)o2)c(Cl)c1 [TCMDC-123767] | > 20 µM | 88% | 88% | 88% | 270 nM | 270 nM | 83% | 83% | 0.1 | 97% | 13.26 | 85% | 0.1 | 97% | 13.2 |  |  |  |  | reduction of asexual blood stages parasitaemia (threshold 40% vs vehicle) ([5]; 50 mg kg^−1 single dose 2-day oral treatment, mice): not reduced above the threshold; ED50 ([5]; single dose 2-day treatment, oral, P. berghei mice): > 50 mg/kg
